In assay [1] the test system is sensitized rabbit leukocytes. The assay is described as follows: Inhibition of histamine release from sensitized rabbit leukocytes (in vitro). Conditions: for IC50: Oryctolagus cuniculus, Leukocyte, ragweed-sensitized rabbit leukocytes, ragweed antigen, with S.E.M., read-out: ED50 + S.E.M. (molar concentration required to give 50% inhibition of histamine release); for Relative in vitro Inhibition of Histamine Release: relative to chlorphenesin = 1. It counts as cell-based. The method, then:
The procedure published by L. M. Lichtenstein and A. G. Osler, J. EXPTL. MEDICINE, 120:507-530, 1964, for the determination of histamine from human leukocytes, was used to measure histamine release from sensitized rabbit leukocytes. Forty-five ml of blood, drawn by cardiac puncture from ragweed-sensitized rabbits with a plastic syringe containing 250 units of heparin in 5 ml of physiological saline solution, was used. Measurements were made of the total amount of histamine in the leukocytes, the amount of histamine released with the specific antigen (ragweed), the amount of histamine released spontaneously (cell blanks), and the amount of histamine released in the presence of various concratrations of drugs under test.
Appropriate controls for buffer antigen and drugs were included and an internal histamine standard curve was established with each experiment. Inhibition of histamine release was computed from the amount of histamine released by the ragweed antigen in the presence and absence of the drug, i.e., the difference between the quantity of histamine released spontaneously and the amount released by antigen.

Assay [2] has as its system human leukocytes. Conditions: reported by Lichtenstein and Adkinson, J. Immunology 103:866, 1969; cited from earlier work.
Assay [3] deals with ragweed-sensitized rabbits. Briefly: Inhibition of histamine release after oral administration to ragweed-sensitized rabbits (in vivo). The following applies: 100 mg/kg oral, rabbit, 50 μg antigen N per ml. The method, then:
Five ml of blood was drawn by cardiac puncture from a ragweed-sensitized rabbit to ascertain the basic histamine content of the blood. The amount of histamine released by the addition of 50 μg of antigen N per ml of the assay system was determined. The rabbit was then treated orally with 100 mg/kg of drug using a catheter. One and 5 hr following administration of drug, 5 ml of blood was withdrawn and assayed for histamine by the spectrofluorometric method described by P. A. Shore, A. Burkhalter and V. H. Cohn, Jr., J. PHARMACOL. and EXPTL. THERAP., 127:182, 1959. The percentage inhibition of histamine release was computed from the amount of histamine released before and at 1 and 5 hr following administration of drug.

Each structure is given as a SMILES string.

For the compound `COCCCCSc1ccc(Cl)cc1` [Compound 4, 4-(p-Chlorophenylthio)butyl methyl ether], in assay [1], the IC50 came to 28 µM and the “Relative in vitro Inhibition of Histamine Release” value (“Relative in vitro Inhibition” for short) is 12.

In the case of `CC(=O)OCCCCSc1ccc(Cl)cc1` [Compound 3, 4-(p-Chlorophenylthio)butyl acetate], in assay [1], the IC50 came out at 6.3 µM and the “Relative in vitro Inhibition” value stood at 52.

As for `OCC(O)COc1ccc(Cl)cc1` (stereo not shown) [chlorphenesin, 3-p-chlorophenoxy-1,2-propanediol, reference compound], the “inhibition of histamine release from human leukocytes” value in assay [2] is listed as “inhibit histamine release from human leukocytes”. For the same compound, in assay [1], the IC50 was found to be 330 µM and the “Relative in vitro Inhibition” value turned out to be 1.

For the compound `O=C(O)CSc1ccc(Cl)cc1` [Compound 2, 2-(p-Chlorophenylthio)acetic acid], in assay [1], the IC50 came to 44 µM and the “Relative in vitro Inhibition” value came out at 8.

For the compound `O=C(O)CCCSc1ccc(Cl)cc1` [Compound 1, Sodium 4-(p-Chlorophenylthio)butyrate], the “percentage inhibition of histamine release” value in assay [3] (5 hrs after drug) is given as 10-15%. Further, the “percentage inhibition of histamine release” value in assay [3] (one hour after drug) is 30-40%. In assay [1], the IC50 is 6 µM and the “Relative in vitro Inhibition” value stood at 55.

The values are drawn from US4124723A, “Method for suppressing histamine release” (Carter-Wallace, Inc., priority 1977, dated 1978).
